Test results reported in ChEMBL document CHEMBL2073945, “Contribution of cholesterol and phospholipids to inhibitory effect of dimethyl-beta-cyclodextrin on efflux function of P-glycoprotein and multidrug resistance-associated protein 2 in vinblastine-resistant Caco-2 cell monolayers” (Pharm Res, 2004).

target: ATP-dependent translocase ABCB1 (Homo sapiens, UniProt P08183); test: TP_TRANSPORTER: transepithelial transport of Rhodamine 123 (basal to apical) in Caco-2R cells; format: functional, cell-based
Sequence (P08183 whole entry): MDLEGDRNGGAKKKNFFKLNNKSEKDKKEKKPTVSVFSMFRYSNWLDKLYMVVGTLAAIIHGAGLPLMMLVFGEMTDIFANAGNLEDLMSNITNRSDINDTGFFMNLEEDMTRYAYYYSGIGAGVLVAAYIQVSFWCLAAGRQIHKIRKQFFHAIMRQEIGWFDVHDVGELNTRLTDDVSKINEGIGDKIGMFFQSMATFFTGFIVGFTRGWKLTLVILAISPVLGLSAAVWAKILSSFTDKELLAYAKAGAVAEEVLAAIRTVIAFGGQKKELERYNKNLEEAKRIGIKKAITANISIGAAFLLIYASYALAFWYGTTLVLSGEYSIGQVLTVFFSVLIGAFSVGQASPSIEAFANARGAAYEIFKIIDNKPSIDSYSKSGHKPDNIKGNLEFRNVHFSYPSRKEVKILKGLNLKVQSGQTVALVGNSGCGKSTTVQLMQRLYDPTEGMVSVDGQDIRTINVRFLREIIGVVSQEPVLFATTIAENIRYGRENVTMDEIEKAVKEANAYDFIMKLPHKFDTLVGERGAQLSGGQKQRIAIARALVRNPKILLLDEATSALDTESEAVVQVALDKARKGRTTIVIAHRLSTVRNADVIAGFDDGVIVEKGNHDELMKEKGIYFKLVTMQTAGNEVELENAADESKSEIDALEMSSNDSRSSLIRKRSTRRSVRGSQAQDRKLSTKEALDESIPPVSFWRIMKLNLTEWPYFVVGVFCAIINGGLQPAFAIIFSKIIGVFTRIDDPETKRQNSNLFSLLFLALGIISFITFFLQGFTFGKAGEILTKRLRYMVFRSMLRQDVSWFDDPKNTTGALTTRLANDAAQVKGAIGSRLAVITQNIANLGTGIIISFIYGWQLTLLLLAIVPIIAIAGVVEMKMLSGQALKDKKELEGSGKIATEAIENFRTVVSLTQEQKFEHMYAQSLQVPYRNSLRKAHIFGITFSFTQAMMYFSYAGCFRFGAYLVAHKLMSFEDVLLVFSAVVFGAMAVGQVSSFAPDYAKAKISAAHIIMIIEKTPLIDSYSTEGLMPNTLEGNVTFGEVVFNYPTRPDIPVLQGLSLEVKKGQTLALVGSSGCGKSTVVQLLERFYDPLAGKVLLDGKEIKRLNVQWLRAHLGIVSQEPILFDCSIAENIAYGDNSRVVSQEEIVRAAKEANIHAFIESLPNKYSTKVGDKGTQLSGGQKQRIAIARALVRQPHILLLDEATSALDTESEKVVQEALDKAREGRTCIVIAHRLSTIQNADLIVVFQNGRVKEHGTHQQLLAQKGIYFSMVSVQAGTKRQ

| Activity | Structure (SMILES) |
| --- | --- |
| is not an inhibitor [-] | CCCC(OC(CCC)S(=O)(=O)O)S(=O)(=O)O.OC[C@H]1O[C@@H]2O[C@H]3[C@H](O)[C@@H](O)[C@@H](O[C@H]4[C@H](O)[C@@H](O)[C@@H](O[C@H]5[C@H](O)[C@@H](O)[C@@H](O[C@H]6[C@H](O)[C@@H](O)[C@@H](O[C@H]7[C@H](O)[C@@H](O)[C@@H](O[C@H]8[C@H](O)[C@@H](O)[C@@H](O[C@H]1[C@H](O)[C@H]2O)O[C@@H]8CO)O[C@@H]7CO)O[C@@H]6CO)O[C@@H]5CO)O[C@@H]4CO)O[C@@H]3CO |
| inhibitor [+] | COC[C@H]1O[C@@H]2O[C@H]3[C@H](O)[C@@H](OC)[C@@H](O[C@H]4[C@H](O)[C@@H](OC)[C@@H](O[C@H]5[C@H](O)[C@@H](OC)[C@@H](O[C@H]6[C@H](O)[C@@H](OC)[C@@H](O[C@H]7[C@H](O)[C@@H](OC)[C@@H](O[C@H]8[C@H](O)[C@@H](OC)[C@@H](O[C@H]1[C@H](O)[C@H]2OC)O[C@@H]8COC)O[C@@H]7COC)O[C@@H]6COC)O[C@@H]5COC)O[C@@H]4COC)O[C@@H]3COC |
| is not an inhibitor [-] | CC(O)COC[C@H]1O[C@@H]2O[C@H]3[C@H](O)[C@@H](O)[C@@H](O[C@H]4[C@H](O)[C@@H](O)[C@@H](O[C@H]5[C@H](O)[C@@H](O)[C@@H](O[C@H]6[C@H](O)[C@@H](O)[C@@H](O[C@H]7[C@H](O)[C@@H](O)[C@@H](O[C@H]8[C@H](O)[C@@H](O)[C@@H](O[C@H]1[C@H](O)[C@H]2O)O[C@@H]8COCC(C)O)O[C@@H]7COCC(C)O)O[C@@H]6COCC(C)O)O[C@@H]5COCC(C)O)O[C@@H]4COCC(C)O)O[C@@H]3COCC(C)O (stereo partly drawn) [2-HYDROXYPROPYL-BETA-CYCLODEXTRIN] |
| is not an inhibitor [-] | COC[C@@H]1O[C@H]2O[C@@H]3[C@@H](O)[C@H](O)[C@H](O[C@@H]4[C@@H](O)[C@H](O)[C@H](O[C@H]5[C@H](OC)[C@@H](O)[C@@H](O[C@@H]6[C@@H](O)[C@H](O)[C@H](O[C@@H]7[C@@H](O)[C@H](O)[C@H](O[C@@H]8[C@@H](O)[C@H](O)[C@H](O[C@@H]1[C@@H](O)[C@@H]2O)O[C@H]8COC)O[C@H]7COC)O[C@H]6COC)O[C@@H]5COC)O[C@H]4COC)O[C@H]3COC |
